From US20230202992A1, “PHARMACEUTICAL COMPOSITION FOR PREVENTING OR TREATING SMALL-CELL LUNG CANCER ASSOCIATED WITH RON MUTANTS AND METHOD USING SAME” (WELLMARKER BIO CO., LTD., priority 2020, published 2023)

Columns and labels:
[1] = system: H417 cell line (small cell lung cancer cell line of a mutation RONΔ155 type); assay: Cell killing efficacy in small cell lung cancer cell line (PI staining, FACS); format: cell-based; details: H417 cells (mRONΔ155), 1 μM, 72 hours, propidium iodide, FIG. 1
Method: The H417 cell line, which is a small cell lung cancer cell line of a mutation RONΔ155 type, was counted, and 2×10^5 cells were seeded in a 60 mm dish, respectively, and 24 hours later, treated with 1 μM of each of the compounds synthesized in Example 1 (WM-S1-030), Example 2, Example 3, Example 4, and Example 5 for 72 hours. As a positive control, a known RON inhibitor, BMS-777607 compound (1 μM), was used. BMS-777607 is N-{4-[(2-amino-3-chloro-4-pyridinyl)oxy]-3-fluorophenyl}-4-ethoxy-1-(4-fluorophenyl)-2-oxo-1,2-dihydro-3-pyridinecarboxamide, which is compound 1 disclosed in U.S. Pat. No. 8,536,200 B2. BMS-777607 is a well known RON inhibitor.
After 72 hours, all of the medium was transferred to a 15 mL conical tube and washed once with 1×PBS (phosphate buffered saline), and then the cells were harvested. Thereafter, the supernatant was removed by centrifugation at 1,000 rpm for 3 minutes, and propidium iodide (PI) was diluted in a FACS (Fluorescence-Activated Cell Sorting) buffer (PBS+2% FBS) at a ratio of 1:1000. The prepared buffer was added adequately depending on the number of cells, and then it was transferred to a FACS tube and reacted for 10 minutes. Thereafter, it was measured using a cytometer (FACS Analyzer).

[2] = system: H417 cell line (mRONΔ155) transplanted tumor; assay: Tumor growth inhibition in H417 cell line transplanted animal model; format: in vivo, mouse; details: BALB/c-nude mice transplanted with H417, 30 mpk, oral, once a day for 3 weeks; FIG. 2
Method: It was confirmed whether tumor growth was inhibited by administering WM-S1-030 synthesized in Example 1 above at a dose of 30 mpk to a mouse model transplanted with the H417 cell line, which is a small cell lung cancer cell line of a mutation RONΔ155 type. Specifically, 5-week-old female BALB/c-nude mice were purchased and acclimatized for 1 week. Thereafter, H417 (5×10^6 cells/mouse), a small cell lung cancer cell line of a mutation RONΔ155 type, was diluted in PBS (phosphate buffered saline), and 100 μL was injected subcutaneously into the right dorsal side of the mouse. When the size of the tumor reached about 100 mm^3, WM-S1-030 was orally administered. At this time, the group orally administered with the vehicle was used as a negative control. The drug was administered once a day for 3 weeks, and the tumor size and body weight were measured twice a week. After the drug administration was completed, the mice were euthanized, the tumor was extracted, and the weight was measured.

cleaved caspase-3 = assay: Protein expression change in tumor tissue of H417 transplanted animal model, immunochemical staining; format: in vivo; details: H417 transplanted mouse model, 3 mpk, 10 mpk, 30 mpk, FIG. 3
Method: (§1) WM-S1-030 synthesized in Example 1 above was administered at each concentration (3 mpk, 10 mpk, 30 mpk) to a mouse model transplanted with the H417 cell line, which is a small cell lung cancer cell line of a mutation RONΔ155 type, and then the tumor was extracted, and the expression changes of the proteins were analyzed by immunochemical staining.
(§2) Specifically, paraffin slides were prepared using tissues isolated from the sacrificed mice. The tissue sections were deparaffinized and rehydrated, immersed in the target recovery buffer 1×(ScyTek Laboratories, Cat #CBB999) and heated for 15 minutes to perform an antigen recovery process. After the reaction, the tissue sections were washed in Tris buffered saline-0.05% Tween 20 (TBS-T)(T&I, BTT-9310) for 5 minutes, and then the reaction was performed with a non-specific antibody reaction blocking reagent (vector, SP-5035) for 1 hour.
(§3) The tissue sections were cultured at 4° C. overnight with mRON (Abcam, ab52927, 1:50), pTyr-mRON (Mybioscience, MBS462024, 1:100), cleaved caspase-3 (Asp175XR&D Systems, MAB835, 1:50) and then washed with TBS-T for 5 minutes, and then endogenous peroxidase activity was blocked using a peroxidase blocking reagent (Cellmarque, 925B-05). Thereafter, the tissue sections were washed with TBS-T for 5 minutes and then incubated with a rabbit secondary antibody (vector, PK-6101) at room temperature for 1 hour. […]

pTyr-mRON = assay: as above; format: in vivo; details: H417 transplanted mouse model, 3 mpk, 10 mpk, 30 mpk, FIG. 3
Method: as §1, §2, §3

Row | SMILES | cell death (cell killing efficacy) [1] | tumor growth [2] | expression of cleaved caspase-3 (cleaved caspase-3) | expression of pTyr-mRON (pTyr-mRON)
1 | CCOc1ccn(-c2ccc(F)cc2)c(=O)c1C(=O)Nc1ccc(Oc2ccnc(N)c2Cl)c(F)c1 [BMS-777607, N-{4-[(2-amino-3-chloro-4-pyridinyl)oxy]-3-fluorophenyl}-4-ethoxy-1-(4-fluorophenyl)-2-oxo-1,2-dihydro-3-pyridinecarboxamide] | low |  |  | 
2 | CCOc1ccn(-c2ccc(F)cc2)c(=O)c1C(=O)Nc1ccc(Oc2ccnc3cc(-c4ccc(CN5CCOCC5)cn4)sc23)c(F)c1.Cl [Example 1, 4-ethoxy-N-[3-fluoro-4-({2-[5-(morpholinomethyl)pyridin-2-yl]thieno[3,2-b]pyridin-7-yl}oxy)phenyl]-1-(4-fluorophenyl)-2-oxo-1,2-dihydropyridine-3-carboxamide hydrochloride] |  | significantly inhibited | induced | decreased
